Data: patent US20230165980A1, “METHODS FOR RADIOLABELING PSMA BINDING LIGANDS AND THEIR KITS” (Novartis AG, priority 2020, published 2023)

Test: Radiochemical purity and radiochemical stability of ^68GaPSMA-11 by HPLC
Assay type: physicochemical
Conditions: for [^68Ga] Gallium PSMA-11 (sum of stereosiomers), HPLC / [^68Ga] Gallium free, HPLC / [^68Ga] Gallium main degradant, HPLC: t0 h
Protocol: Radiochemical Purity and Identification of ^68GaPSMA-11 by HPLC
Chromatographic Conditions
Radical Scavenger to be used for the improvement of the radiochemical stability of ^68Ga-PSMA-11, tests were performed according to a varied approach in order to consider all the parameters that may affect the radiochemical purity of the product (activity, pH, volume, amount of Gentisic Acid).
Stability tests were performed on the freeze dried product containing the final formulation. […] Kits manufactured with the final formulation, indeed, were stored at different stability conditions (2-8° C.; 25° C. and 40° C.) and were tested at different time points for API-assay, Radiochemical Purity and Radiochemical Stability of the radiolabelled product. Radiochemical Purity and Stability were assessed only eluting IRE Generator which represented the most stressful condition in terms of Radioactive Concentration (Volumic Activity).

[1] = Gentisic Acid 0 μg, IRE 17.19 mCi, 1 mL, pH 5.24
[2] = Gentisic Acid 200 μg, IRE 17.85 mCi, 1 mL, pH 5.22
[3] = Gentisic Acid 200 μg, IRE 18.07 mCi, 1 mL, pH 5.25
[4] = Gentisic Acid 200 μg, ITG 35.92 mCi, 4 mL, pH 4.83
[5] = Gentisic Acid 400 μg, IRE 17.44 mCi, 1 mL, pH 5.13
[6] = Gentisic Acid 400 μg, IRE 17.79 mCi, 1 mL, pH 5.11
[7] = Gentisic Acid 400 μg, ITG 16.9 mCi, 4 mL, pH 4.85
[8] = Gentisic Acid 400 μg, ITG 31.97 mCi, 4 mL, pH 4.81
[9] = Gentisic Acid 1000 μg, E&Z 15.65 mCi, 5 mL, pH 3.75
[10] = Gentisic Acid 1000 μg, IRE 17.1 mCi, 1 mL, pH 5.08
[11] = Gentisic Acid 1000 μg, ITG 30.9 mCi, 4 mL, pH 4.87
[12] = final formulation kit at Release, E&Z 15.65 mCi, 5 mL, pH 3.75
[13] = final formulation kit at Release, E&Z 16.80 mCi, 5 mL, pH 3.75
[14] = final formulation kit at Release, IRE 32.27 mCi, 1 mL, pH 4.95
[15] = final formulation kit at Release, IRE 32.95 mCi, 1 mL, pH 5.07
[16] = final formulation kit at Release, ITG 29.74 mCi, 4 mL, pH 4.67
[17] = final formulation kit at Release, ITG 30.90 mCi, 4 mL, pH 4.67
[18] = kit stored 3 months at 2-8° C., IRE 25.76 mCi, 1 mL, pH 5.29
[19] = kit stored 3 months at 25° C., IRE 24.56 mCi, 1 mL, pH 5.16
[20] = kit stored 3 months at 40° C., IRE 24.86 mCi, 1 mL, pH 5.23
[21] = kit stored 6 months at 2-8° C., IRE 19.90 mCi, 1 mL, pH 5.13
[22] = kit stored 6 months at 25° C., IRE 18.88 mCi, 1 mL, pH 5.09
[23] = kit stored 6 months at 40° C., IRE 19.34 mCi, 1 mL, pH 5.15

^68Ga-PSMA-11 [[^68Ga] Gallium PSMA-11]
time for which the radiolabelled product is stable with high radiochemical purity (400 μg Gentisic Acid): up to 4 hours | [^68Ga] Gallium PSMA-11 (sum of stereosiomers), HPLC [1]: 92.71% | [^68Ga] Gallium free, HPLC [1]: 0.15% | [^68Ga] Gallium main degradant, HPLC [1]: 6.61% | [^68Ga] Gallium PSMA-11 (sum of stereosiomers), HPLC [2]: 97.76% | [^68Ga] Gallium free, HPLC [2]: 0.00% | [^68Ga] Gallium main degradant, HPLC [2]: 1.83% | [^68Ga] Gallium PSMA-11 (sum of stereosiomers), HPLC [3]: 98.46% | [^68Ga] Gallium free, HPLC [3]: 0.00% | [^68Ga] Gallium main degradant, HPLC [3]: 1.21% | [^68Ga] Gallium PSMA-11 (sum of stereosiomers), HPLC [4]: 99.56% | [^68Ga] Gallium free, HPLC [4]: 0.00% | [^68Ga] Gallium main degradant, HPLC [4]: 0.19% | [^68Ga] Gallium PSMA-11 (sum of stereosiomers), HPLC [5]: 99.29% | [^68Ga] Gallium free, HPLC [5]: 0.00% | [^68Ga] Gallium main degradant, HPLC [5]: 0.71% | [^68Ga] Gallium PSMA-11 (sum of stereosiomers), HPLC [6]: 98.88% | [^68Ga] Gallium free, HPLC [6]: 0.12% | [^68Ga] Gallium main degradant, HPLC [6]: 1.00% | [^68Ga] Gallium PSMA-11 (sum of stereosiomers), HPLC [7]: 99.16% | [^68Ga] Gallium free, HPLC [7]: 0.08% | [^68Ga] Gallium main degradant, HPLC [7]: 0.19% | [^68Ga] Gallium PSMA-11 (sum of stereosiomers), HPLC [8]: 99.35% | [^68Ga] Gallium free, HPLC [8]: 0.00% | [^68Ga] Gallium main degradant, HPLC [8]: 0.16% | [^68Ga] Gallium PSMA-11 (sum of stereosiomers), HPLC [9]: 99.87% | [^68Ga] Gallium free, HPLC [9]: 0.00% | [^68Ga] Gallium main degradant, HPLC [9]: 0.00% | [^68Ga] Gallium PSMA-11 (sum of stereosiomers), HPLC [10]: 99.67% | [^68Ga] Gallium free, HPLC [10]: 0.00% | [^68Ga] Gallium main degradant, HPLC [10]: 0.33% | [^68Ga] Gallium PSMA-11 (sum of stereosiomers), HPLC [11]: 99.80% | [^68Ga] Gallium free, HPLC [11]: 0.01% | [^68Ga] Gallium main degradant, HPLC [11]: 0.02% | [^68Ga] Gallium PSMA-11 (sum of stereosiomers), HPLC [12]: 99.87% | [^68Ga] Gallium free, HPLC [12]: 0.00% | [^68Ga] Gallium main degradant, HPLC [12]: 0.00% | [^68Ga] Gallium PSMA-11 (sum of stereosiomers), HPLC [13]: 99.68% | [^68Ga] Gallium free, HPLC [13]: 0.00% | [^68Ga] Gallium main degradant, HPLC [13]: 0.19% | [^68Ga] Gallium PSMA-11 (sum of stereosiomers), HPLC [14]: 99.58% | [^68Ga] Gallium free, HPLC [14]: 0.00% | [^68Ga] Gallium main degradant, HPLC [14]: 0.00% | [^68Ga] Gallium PSMA-11 (sum of stereosiomers), HPLC [15]: 99.66% | [^68Ga] Gallium free, HPLC [15]: 0.00% | [^68Ga] Gallium main degradant, HPLC [15]: 0.23% | [^68Ga] Gallium PSMA-11 (sum of stereosiomers), HPLC [16]: 99.81% | [^68Ga] Gallium free, HPLC [16]: 0.00% | [^68Ga] Gallium main degradant, HPLC [16]: 0.05% | [^68Ga] Gallium PSMA-11 (sum of stereosiomers), HPLC [17]: 98.80% | [^68Ga] Gallium free, HPLC [17]: 0.01% | [^68Ga] Gallium main degradant, HPLC [17]: 0.02% | [^68Ga] Gallium PSMA-11 (sum of stereosiomers), HPLC [18]: 99.28% | [^68Ga] Gallium free, HPLC [18]: 0.04% | [^68Ga] Gallium main degradant, HPLC [18]: 0.55% | [^68Ga] Gallium PSMA-11 (sum of stereosiomers), HPLC [19]: 99.22% | [^68Ga] Gallium free, HPLC [19]: 0.05% | [^68Ga] Gallium main degradant, HPLC [19]: 0.19% | [^68Ga] Gallium PSMA-11 (sum of stereosiomers), HPLC [20]: 98.92% | [^68Ga] Gallium free, HPLC [20]: 0.07% | [^68Ga] Gallium main degradant, HPLC [20]: 0.26% | [^68Ga] Gallium PSMA-11 (sum of stereosiomers), HPLC [21]: 99.40% | [^68Ga] Gallium free, HPLC [21]: 0.00% | [^68Ga] Gallium main degradant, HPLC [21]: 0.47% | [^68Ga] Gallium PSMA-11 (sum of stereosiomers), HPLC [22]: 99.32% | [^68Ga] Gallium free, HPLC [22]: 0.00% | [^68Ga] Gallium main degradant, HPLC [22]: 0.42% | [^68Ga] Gallium PSMA-11 (sum of stereosiomers), HPLC [23]: 99.21% | [^68Ga] Gallium free, HPLC [23]: 0.04%
